Test results: patent US20250262222A1, “HETEROCYCLIC COMPOUNDS, COMPOSITIONS THEREOF, AND METHODS OF TREATMENT THEREWITH” (BeiGene Switzerland GmbH, priority 2022, published 2025)

What follows are compounds tested on pERK1/2(THR202/TYR204) level in AsPC-1 cell line (assay: KRAS G12D pERK assay). Details: AsPC-1 cells, 2 h compound treatment, HTRF.
Assay type: cell-based
Protocol: AsPC-1 cell line was used in this study. Cells were maintained in RPMI-1640 supplemented with 10% fetal bovine serum (Thermo Fisher), 50 units/mL penicillin and streptomycin (Thermo Fisher) and kept at 37° C. in a humidified atmosphere of 5% CO2 in air. Cells were reinstated from frozen stocks that were laid down within 30 passages from the original cells purchased. 30000 cells per well were seeded into a 96-well plate and incubated overnight. Cells were treated with a 10-point dilution series. The final compound concentration is from 0 to 10 μM. After 2 h compound treatment, cells were lysed, and the pERK1/2(THR202/TYR204) level in the cell lysates was detected by HTRF kit (Cisbio). In brief, a total of 16 μL of cell lysate from each well of a 96-well plate was transferred to a 384-well white assay plate. Lysate from each well was incubated with 2 μL of Eu3+-cryptate (donor) labeled anti-phospho-ERK1/2 and 2 μL of D2 (acceptor) labeled anti-phospho-ERK1/2 antibodies (Cisbio) overnight in dark at room temperature. When donor and acceptor are in close proximity, excitation of the donor with laser triggers a Fluorescence Resonance Energy Transfer (FRET) towards the acceptor, which in turn fluoresces at 655 nm wavelength. FRET signals were measured using a PHERAstar FSX reader (BMG Labtech). IC50 determination was performed by fitting the curve of percent inhibition versus the log of the inhibitor concentration using Dotmatics.

| Compound | IC50 [nM] |
| --- | --- |
| Nc1cc(Cl)c(C(F)(F)F)c(-c2nc3c4c(nc(OC[C@@]56CCCN5C[C@H](F)C6)nc4c2F)N2C[C@H]4CC[C@H](N4)C2CCO3)c1 (single isomer, unassigned) [Example 24] | 4.4 |
| Nc1cc(Cl)c(C(F)(F)F)c(-c2nc3c4c(nc(OC[C@@]56CCCN5C[C@H](F)C6)nc4c2F)N2C[C@H]4CC[C@H](N4)C2CCO3)c1 (single isomer, unassigned) [Example 25] | 504 |

Same assay, conditions: Homo sapiens, ASPC1, 2 h, AsPC-1 cells, 2 h compound treatment, HTRF

| Compound | IC50 [nM] |
| --- | --- |
| Cc1nc(N)cc(-c2nc3c4c(nc(OCC56COC(C5)C6)nc4c2F)N2CC4CCC(N4)[C@H]2CCO3)c1C(F)(F)F (stereo in doubt) [Example 42, 4-((6aR,7R,10S)-13-((2-oxabicyclo[2.1.1]hexan-4-yl)methoxy)-1-fluoro-5,6,6a,7,8,9,10,11-octahydro-4-oxa-3,11a,12,14,15-pentaaza-7,10-methanocyclohepta[4,5]cyclo-octa[1,2,3-de]naphthalen-2-yl)-6-methyl-5-(trifluoromethyl)pyridin-2-amine] | 1850 |
| Nc1cc(Cl)c(C(F)(F)F)c(-c2nc3c4c(nc(OC[C@@]56CCCN5C[C@H](F)C6)nc4c2F)N2CC4CCC(N4)C2CO3)c1 (stereo partly drawn) [Example 10, 3-chloro-5-(1-fluoro-12-(((2R,7aS)-2-fluorotetrahydro-1H-pyrrolizin-7a(5H)-yl)methoxy)-5a,6,7,8,9,10-hexahydro-5H-4-oxa-3,10a,11,13,14-pentaaza-6,9-methanonaphtho[1,8-ab]heptalen-2-yl)-4-(trifluoromethyl)aniline] | 58 |
| C#Cc1c(F)ccc2cc(O)cc(-c3nc4c5c(nc(OC[C@@]67CCCN6C[C@H](F)C7)nc5c3F)N3CC5CCC(N5)C3CO4)c12 (stereo partly drawn) [Example 11, 5-ethynyl-6-fluoro-4-(1-fluoro-12-(((2R,7aS)-2-fluorotetrahydro-1H-pyrrolizin-7a(5H)-yl)methoxy)-5a,6,7,8,9,10-hexahydro-5H-4-oxa-3,10a,11,13,14-pentaaza-6,9-methanonaphtho[1,8-ab]heptalen-2-yl)naphthalen-2-ol] | 30 |
| Nc1cc(Cl)c(C(F)(F)F)c(-c2nc3c4c(nc(OC[C@@]56CCCN5C[C@H](F)C6)nc4c2F)N2C[C@H]4CC[C@H](N4)[C@H]2CO3)c1 [Example 17, 3-chloro-5-((5aS,6S,9R)-1-fluoro-12-(((2R,7aS)-2-fluorotetrahydro-1H-pyrrolizin-7a(5H)-yl)methoxy)-5a,6,7,8,9,10-hexahydro-5H-4-oxa-3,10a,11,13,14-pentaaza-6,9-methanonaphtho[1,8-ab]heptalen-2-yl)-4-(trifluoromethyl)aniline] | 11 |
| Cc1cc(N)cc(-c2nc3c4c(nc(OCC56COC(C)(C5)C6)nc4c2F)N2C[C@H]4CC[C@H](N4)[C@H]2CCO3)c1C(F)(F)F [Example 28, 3-((6aR,7S,10R)-1-fluoro-13-((1-methyl-2-oxabicyclo[2.1.1]hexan-4-yl)methoxy)-5,6,6a,7,8,9,10,11-octahydro-4-oxa-3,11a,12,14,15-pentaaza-7,10-methanocyclohepta[4,5]cyclo-octa[1,2,3-de]naphthalen-2-yl)-5-methyl-4-(trifluoromethyl)aniline] | 152 |
| Cc1cc(N)cc(-c2nc3c4c(nc(OCC56COCC(F)(C5)C6)nc4c2F)N2C[C@H]4CC[C@H](N4)[C@H]2CCO3)c1C(F)(F)F [Example 30, 3-((6aR,7S,10R)-1-fluoro-13-((5-fluoro-3-oxabicyclo[3.1.1]heptan-1-yl)methoxy)-5,6,6a,7,8,9,10,11-octahydro-4-oxa-3,11a,12,14,15-pentaaza-7,10-methanocyclohepta[4,5]cyclo-octa[1,2,3-de]naphthalen-2-yl)-5-methyl-4-(trifluoromethyl)aniline] | 198 |
| Cc1c(F)c(N)cc(-c2nc3c4c(nc(OCC5(C(F)F)COC5)nc4c2F)N2C[C@H]4CC[C@H](N4)[C@H]2CCO3)c1C(F)(F)F [Example 31, 5-((6aR,7S,10R)-13-((3-(difluoromethyl)oxetan-3-yl)methoxy)-1-fluoro-5,6,6a,7,8,9,10,11-octahydro-4-oxa-3,11a,12,14,15-pentaaza-7,10-methanocyclohepta[4,5]cyclo-octa[1,2,3-de]naphthalen-2-yl)-2-fluoro-3-methyl-4-(trifluoromethyl)aniline] | 162 |
| CCOC(=O)N1CC(C)(COc2nc3c4c(nc(-c5cc(N)cc(Cl)c5C(F)(F)F)c(F)c4n2)OCC[C@@H]2[C@@H]4CC[C@H](CN32)N4)C1 [Example 33, ethyl 3-((((6aR,7S,10R)-2-(5-amino-3-chloro-2-(trifluoromethyl)phenyl)-1-fluoro-5,6,6a,7,8,9,10,11-octahydro-4-oxa-3,11a,12,14,15-pentaaza-7,10-methanocyclohepta[4,5]cyclo-octa[1,2,3-de]naphthalen-13-yl)oxy)methyl)-3-methylazetidine-1-carboxylate] | 286 |
| CC12CC(COc3nc4c5c(nc(-c6cc(N)cc(Cl)c6C(F)(F)F)c(F)c5n3)OCC[C@@H]3[C@@H]5CC[C@H](CN43)N5)(CO1)C2 [Example 34, 3-chloro-5-((6aR,7S,10R)-1-fluoro-13-((1-methyl-2-oxabicyclo[2.1.1]hexan-4-yl)methoxy)-5,6,6a,7,8,9,10,11-octahydro-4-oxa-3,11a,12,14,15-pentaaza-7,10-methanocyclohepta[4,5]cyclo-octa[1,2,3-de]naphthalen-2-yl)-4-(trifluoromethyl)aniline] | 82 |
| CC12CCC(COc3nc4c5c(nc(-c6cc(N)cc(Cl)c6C(F)(F)F)c(F)c5n3)OCC[C@@H]3[C@@H]5CC[C@H](CN43)N5)(CO1)C2 [Example 36, 3-chloro-5-((6aR,7S,10R)-1-fluoro-13-((1-methyl-2-oxabicyclo[2.2.1]heptan-4-yl)methoxy)-5,6,6a,7,8,9,10,11-octahydro-4-oxa-3,11a,12,14,15-pentaaza-7,10-methanocyclohepta[4,5]cyclo-octa[1,2,3-de]naphthalen-2-yl)-4-(trifluoromethyl)aniline] | 106 |
| Nc1cc(Cl)c(C(F)(F)F)c(-c2nc3c4c(nc(OCC56COCC(F)(C5)C6)nc4c2F)N2C[C@H]4CC[C@H](N4)[C@H]2CCO3)c1 [Example 37, 3-chloro-5-((6aR,7S,10R)-1-fluoro-13-((5-fluoro-3-oxabicyclo[3.1.1]heptan-1-yl)methoxy)-5,6,6a,7,8,9,10,11-octahydro-4-oxa-3,11a,12,14,15-pentaaza-7,10-methanocyclohepta[4,5]cyclo-octa[1,2,3-de]naphthalen-2-yl)-4-(trifluoromethyl)aniline] | 97 |
| Oc1cc(Cl)c(C2CC2)c(-c2nc3c4c(nc(OCC56COC(C5)C6)nc4c2F)N2C[C@H]4CC[C@H](N4)[C@H]2CCO3)c1 [Example 38, 3-((6aR,7S,10R)-13-((2-oxabicyclo[2.1.1]hexan-4-yl)methoxy)-1-fluoro-5,6,6a,7,8,9,10,11-octahydro-4-oxa-3,11a,12,14,15-pentaaza-7,10-methanocyclohepta[4,5]cyclo-octa[1,2,3-de]naphthalen-2-yl)-5-chloro-4-cyclopropylphenol] | 1870 |
| COCC12CC(COc3nc4c5c(nc(-c6cc(N)cc(Cl)c6C(F)(F)F)c(F)c5n3)OCC[C@@H]3[C@@H]5CC[C@H](CN43)N5)(CO1)C2 [Example 39, 3-chloro-5-((6aR,7S,10R)-1-fluoro-13-((1-(methoxymethyl)-2-oxabicyclo[2.1.1]hexan-4-yl)methoxy)-5,6,6a,7,8,9,10,11-octahydro-4-oxa-3,11a,12,14,15-pentaaza-7,10-methanocyclohepta[4,5]cyclo-octa[1,2,3-de]naphthalen-2-yl)-4-(trifluoromethyl)aniline] | 409 |
| COC(=O)N1CC(C)(COc2nc3c4c(nc(-c5cc(N)cc(C)c5C(F)(F)F)c(F)c4n2)OCC[C@@H]2[C@@H]4CC[C@H](CN32)N4)C1 [Example 43, methyl 3-((((6aR,7S,10R)-2-(5-amino-3-methyl-2-(trifluoromethyl)phenyl)-1-fluoro-5,6,6a,7,8,9,10,11-octahydro-4-oxa-3,11a,12,14,15-pentaaza-7,10-methanocyclohepta[4,5]cyclo-octa[1,2,3-de]naphthalen-13-yl)oxy)methyl)-3-methylazetidine-1-carboxylate] | 584 |
| C[C@](O)(COc1nc2c3c(nc(-c4cc(N)cc(Cl)c4C(F)(F)F)c(F)c3n1)OCC[C@@H]1[C@@H]3CC[C@H](CN21)N3)C(F)(F)F [Example 44, (S)-3-(((6aR,7S,10R)-2-(5-amino-3-chloro-2-(trifluoromethyl)phenyl)-1-fluoro-5,6,6a,7,8,9,10,11-octahydro-4-oxa-3,11a,12,14,15-pentaaza-7,10-methanocyclohepta[4,5]cyclo-octa[1,2,3-de]naphthalen-13-yl)oxy)-1,1,1-trifluoro-2-methylpropan-2-ol] | 2220 |
| Nc1cc(Cl)c(C(F)(F)F)c(-c2nc3c4c(nc(OCC56CCC(COC5)C6)nc4c2F)N2C[C@H]4CC[C@H](N4)[C@H]2CCO3)c1 [Example 45, 3-((6aR,7S,10R)-13-((3-oxabicyclo[3.2.1]octan-1-yl)methoxy)-1-fluoro-5,6,6a,7,8,9,10,11-octahydro-4-oxa-3,11a,12,14,15-pentaaza-7,10-methanocyclohepta[4,5]cyclo-octa[1,2,3-de]naphthalen-2-yl)-5-chloro-4-(trifluoromethyl)aniline] | 221 |
